Results from patent publication US6652861B1, “Anti-HIV and anti-tumor peptides and truncated polypeptides of MAP30” (priority 1999, dated 2003).
“And” between values parts separate entries of the source, which are not always exact repeats. Equal entries are not always repeated. “Also recorded” adds a separate entry of the source.

B1: MAP30: Momordica Anti-HIV Protein 30 kDa, native full-length, SEQ ID NO:1, from bitter melon (protein, listed as Momordica charantia)
chain: DVNFDLSTATAKTYTKFIEDFRATLPFSHKVYDIPLLYSTISDSRRFILLDLTSYAYETISVAIDVTNVYVVAYRTRDVSYFFKESPPEAYNILFKGTRKITLPYTGNYENLQTAAHKIRENIDLGLPALSSAITTLFYYNAQSAPSALLVLIQTTAEAARFKYIERHVAKYVATNFKPNLAIISLENQWSALSKQIFLAQNQGGKFRNPVDLIKPTGERFQVTNVDSDVVKGNIKLLLNSRASTADENFITTMTLLGESVVN

Assays:
human spermatozoa [1] = assay: Sperm vitality by eosin Y/nigrosine staining; format: cell-based; conditions: vital stain
Method: The vitality staining was carried out by adding two drops of eosin Y to one drop of sperm sample and mixing for ten seconds. Two drops of nigrosine were then added to this mixture, and the solutions as mixed for 30 seconds. Slides were made from one drop of each solution mixed with MAP30, or GAP31, or N-9.

HSV-2 = assay: Anti-HSV assay by ELISA in WI-38 cells; format: cell-based
Method: Anti-HSV activity was assayed with HSV-2 by ELISA (Meridian Diagnostics, Inc., Cincinnati, Ohio) as reported previously (Bourinbaiar et al (1996)). Human embryonic lung fibroblast cell line WI-38, (CCL-75, from ATCC, Rockville, Md.) was used as target cells. HSV-2 (VR-734, strain G) derived from a human with the genital infection was obtained from ATCC, Rockville, Md.

human spermatozoa [2] = assay: Sperm motility by counting; format: cell-based; conditions: for effect on sperm motility at the antiviral EC100 concentrations: 0.01 to 0.1 μg/ml; for spermicidal activity / motility inhibition over the entire concentration ranges tested: 0.1 to 100 μg/ml
Method: Ten semen samples were randomly obtained form ten donors at the Andrology laboratory of the Department of Obstetrics and Gynecology at NYU Medical Center. All specimens were normal semen samples according to WHO guidelines. Each sample consisted of greater than or equal to 20 million motile sperm per milliliter. Sperm count and motility were determined by placing the sperm on a hackler chamber and assessing the samples under a 40× power microscopic field.
Each semen sample was washed two consecutive times in Ham's F-10 media. The washed sperm was spun to a pellet and then re-suspended in media to a concentration of 40 million spermatocytes per milliliter with at least 50% motility. Five microliters of sperm were then suspended in 100 microliters each of PBS, serial 10-fold dilutions of MAP30, or GAP31 or N-9 from 100 to 0.1 microg/ml. N-9 was used as a positive control. Motility and forward progression were assessed at each log concentration of the three compounds. The exposure time ranged form five minute to two hours.

[3] = tested on: endoproteinase Lys-C and Glu-C (V8); assay: Resistance to limited proteolysis with Lys-C and V8 (SDS-PAGE); conditions: Lys-C or V8, up to 24 hr
Method: MAP30 and GAP31 were subjected to proteolysis with sequencing grade endoproteinase Lys-C and Glu-C (Promega, Madison, Wis.). Lys-C cleaves at the carboxylic side of lysine (Elliott et al., 1986). Glu-C, also known as V8 protease, cleaves specifically at the carboxylic side of glutamic acid in the presence of ammonium ion (Drapeau et al., 1972). In the absence of ammonium ion, Glu-C acts at both aspartic and glutamic acids. The reaction buffers for Lys-C and V8 were 25 mM Tris-HCl, pH 7.8, 1 mM EDTA and 50 mM ammonium bicarbonate, pH 7.8 respectively.
FIGS. 1A-1D show time course SDS-PAGE patterns of Lys-C and V8 digestions of MAP30 and GAP31. Three major fragments were produced in each case. These fragments are designated MLF25, MLF21, MLF0.8 (MAP30 Lys-C Fragments of 25, 21, and 0.8 kDa, FIG. 1A), MVF25, MVF21, MVF0.8 (MAP30 V8 Fragments of 25, 21, and 0.8 kDa, FIG. 1B), GLF26, GLF22, GLF0.6 (GAP31 Lys-C Fragments of 26, 22 and 0.6 kDa, FIG. 1C), and GVF26, GVF22, GVF0.6 (GAP31 V8 Fragments of 26, 22 and 0.6 kDa, FIG. 1D). The smaller peptides are C-terminal fragments produced during proteolysis and they are sensitive to further digestion to short peptides.

HIV-1(IIIB) = assay: Anti-HIV assay: p24 expression in HIV-infected MT-4 T lymphocytes; format: cell-based; conditions: for EC50 / EC50 anti-HIV, p24 / EC100 anti-HIV, p24 (complete inhibition of HIV-1) / EC100 anti-HIV, p24 (molar): HIV-1 infected MT4 lymphocytes; for fold more potent than N-9 in terms of molar concentration at EC50 / fold more potent than N-9 in terms of weight per volume: anti-HIV p24, MT4; for concentration of complete inhibition of p24 expression (FIG. 9): p24 ELISA of HIV-infected MT4 culture supernatant
Method: Anti-HIV activity was assayed by inhibition on viral core protein, p24 expression in HIV-infected MT-4 T lymphocytes by RIA as described previously (World Health Organization (1992); Bourinbaiar et al (1995)). Briefly, the cells were plated in duplicated in 96-well microtiter plates at 1×10^5 cells/ml in the presence of serial 10-fold dilution of MAP30, or GAP31 or NP-9 at concentrations from […]. The cells were then infected with HIV-1(IIIB) at 100 infectious units per cell. The culture supernatants were collected on day 3 and were used for p24 assay using ELISA kit from Coulter (Hialeah, Fla.). Duplicates of original viral inoculum in the same volume of the medium without the target cells and incubated for 3 days were used as blanks. The blank values were subtracted from wells in which virus was propagated in host MT4 cells with or without drugs.

| Molecule | sperm vitality after treatment (human spermatozoa [1]) | EC100 for HSV-2 (complete inhibition) (HSV-2) [µg/mL] | inhibition of sperm motility at 100 μg/ml (human spermatozoa [2]) | effect on sperm motility at the antiviral EC100 concentrations (human spermatozoa [2]) | spermicidal activity / motility inhibition over the entire concentration ranges tested (human spermatozoa [2]) | resistance to proteolysis [3] | EC50 (HIV-1(IIIB)) [nM] | EC50 anti-HIV, p24 (HIV-1(IIIB)) [ng/mL] | EC100 anti-HIV, p24 (complete inhibition of HIV-1) (HIV-1(IIIB)) | EC100 anti-HIV, p24 (molar) (HIV-1(IIIB)) [nM] | fold more potent than N-9 in terms of molar concentration at EC50 (HIV-1(IIIB)) | fold more potent than N-9 in terms of weight per volume (HIV-1(IIIB)) | concentration of complete inhibition of p24 expression (FIG. 9) (HIV-1(IIIB)) [microgram/ml] | concentration of complete inhibition of sperm motility (FIG. 7) (human spermatozoa [2]) [micrograms/ml] | inhibition in motility at 10 μg/ml (human spermatozoa [2]; 10 μg/ml, relative to PBS as 100% motility, mean ± SEM) [%] | EC50 spermicidal activity (human spermatozoa [2]; 50% inhibition of sperm motility) [µg/mL] | EC100 spermicidal activity (human spermatozoa [2]; 100% inhibition of sperm motility) [µg/mL] | inhibition on sperm motility at the antiviral EC100 concentrations (human spermatozoa [2]; N-9 at 10 μg/ml and 50 μg/ml) [%] |
| --- | --- | --- | --- | --- | --- | --- | --- | --- | --- | --- | --- | --- | --- | --- | --- | --- | --- | --- |
| GAP31: Gelonium Anti-HIV Protein 31 kDa, native full-length, SEQ ID NO:2, from Gelonium multiflorum | remained vital and impermeable to the pink dye; also recorded: not toxic to the spermatozoa | 0.1 | only marginal effect | no significant effect on sperm motility | little spermicidal activity; also recorded: little inhibition | no proteolysis was detected up to 24 hr of treatment even at as much as 5% (W/W) of enzyme | 0.3 | 1 | 0.1 µg/mL | 3.3 | about 540 fold | about 100 fold | 0.1 | – | – | – | – | – |
| Nonoxynol-9 [Fragment N-9, reference compound] | potent spermicidal effect; also recorded: all sperm wimples were dead | 50 | totally inhibited | – | – | – | 162 | 100 | 10 µg/mL | 16200 | – | – | 10 | 100 | 43±5 | 20 | 100 | 50 to 80 |
| B1 | remained vital and impermeable to the pink dye; also recorded: Identical results | 0.01 | only marginal effect | no significant effect on sperm motility | little spermicidal activity; also recorded: little inhibition | no proteolysis was detected up to 24 hr of treatment even at as much as 5% (W/W) of enzyme | 0.3 | 1 | 0.1 µg/mL and 0.08 µg/mL | 3.3 | about 540 fold | about 100 fold | 0.1 | – | – | – | – | – |
